Measured values taken from patent US20090117406A1, “CONCENTRATE FOR FILM PRESERVATION” (priority 2006, published 2009).

What was measured:
[1] = system: Aspergillus niger DSM 1988, Penicillium expansum DSM 1282 and Trichoderma viride DSM 63064; assay: Fungicide trial with weathering on plaster test pieces (VdL guideline 06), fungus mix 2; format: cell-based; conditions: rating after 21 days 0 or 1, for mixtures order of ppm follows order of active agents
Procedure: (§1) The sample to be tested is plaster. The untreated sample is equipped with the cited biocides or single active agents in different concentrations. […] For preparing the samples the plaster is equipped with biocides and from that test pieces are formed. For that purpose for each test piece 7 g plaster are weighed in a small plastic mould and spread evenly. For complete drying the plaster test pieces are stored for three days at room temperature. The prepared test bodies are put in 100 ml tap water each for three days the water being exchanged daily. Then a 15 h phase of drying follows in a circulation air cabinet at 50° C. and 60 circles/min. After three days of equi libration at room temperature the test pieces are sterilised superficially and brought in the biological test. The superficial sterilisation is carried directly before putting them on the nutritive substratum by a exposure to UV radiation on both sides each for 10 minutes under a mercury medium pressure radiator. The evaluations for fungus are carried out on malt extract agar (for example by Fluka). For mix 1 Alternaria alternata DSM 62010 and Ulocladium consortial DSM 6201 is used. For mix 2 Aspergillus niger DSM 1988, Penicillium expansum DSM 1282 and Trichoderma viride DSM 63064 is used. These are used as about 14 days old cultures on inclined agar tubes for producing suspension. For that purpose to each tube 3 ml sterile Ringer's solution are added, and then washed away with a sterile os (this corresponds with a germination index of about 10^8 to 10^9 KBE/ml [KBE=(Kolonie bildende Einheiten) units forming colonies]). […] The nutritive substratum with the put-on test pieces is injected with one of the listed fungus mixtures and incubated at room temperature. After 7, 14 and 21 days the test pieces are evaluated with respect to the fungus growth according to the following rating: 00=sample surface without fouling, with inhibitory aureole around test piece 0=sample surface without fouling, without inhibitory aureole around test piece […] […]

[2] = system: Alternaria alternata DSM 62010 and Ulocladium consortial DSM 6201; assay: Fungicide trial with weathering on plaster test pieces (VdL guideline 06), fungus mix 1; format: cell-based; conditions: rating after 21 days 0 or 1, for mixtures order of ppm follows order of active agents
Procedure: as §1

| SMILES | ppm a.i. in plaster dosed additionally (minimal ppm concentration as fungus growth is obstructed clearly) [1] | ppm a.i. in plaster dosed additionally (minimal ppm concentration as fungus growth is obstructed clearly) [2] |
| --- | --- | --- |
| N#Cc1c(Cl)c(Cl)c(Cl)c(C#N)c1Cl [CTL, 1,3-dicyano-2,4,5,6-tetrachlorbenzole] | 800 ppm | 400 ppm |
| CCCCCCCCn1sccc1=O [OIT, 2-octyl-2H-isothiazole-3-one] | >500(#) ppm | 200 ppm |
| CCCC1COC(Cn2cncn2)(c2ccc(Cl)cc2Cl)O1 (stereo not drawn) [Propiconazol, 1-[[2-(2,4-dichlorphenyl)-4-propyl-1,3-dioxolane-2-yl]methyl] 1 H-1,2,4-triazol] | >2000(#) ppm | 2000 ppm |
